Data on 26 compounds can be found in ChEMBL document CHEMBL4813928, “Targeted Isolation of Asperheptatides from a Coral-Derived Fungus Using LC-MS/MS-Based Molecular Networking and Antitubercular Activities of Modified Cinnamate Derivatives” (2021).

≈ marks a conversion by molar mass, not a printed value. Square brackets hold non-standard residues; d marks the D form. Peptide text beside a SMILES is read from it. Some results are limits rather than exact numbers.

The first test relates to Mycobacterium tuberculosis. Briefly: Antitubercular activity against Mycobacterium tuberculosis H37Ra assessed as bacterial growth inhibition. It is filed as functional.
As to `COc1ccc(/C=C/C(=O)OC[C@H]2NC(=O)[C@@H](C(C)C)NC(=O)[C@H](Cc3ccccc3)NC(=O)[C@@H](C(C)C)NC(=O)[C@@H](C)NC(=O)[C@H](CO)NC(=O)[C@@H](Cc3c[nH]c4ccccc34)NC2=O)cc1`, the MIC was 12.5 µM (≈ 11.7 µg/mL).
Still for that read-out and setting: the same measure for `CC(C)[C@H]1NC(=O)[C@H](Cc2ccccc2)NC(=O)[C@@H](C(C)C)NC(=O)[C@@H](C)NC(=O)[C@H](COC(=O)/C=C/c2ccccc2Cl)NC(=O)[C@@H](Cc2c[nH]c3ccccc23)NC(=O)[C@@H](COC(=O)/C=C/c2ccccc2Cl)NC1=O`: 50 µM (≈ 55.3 µg/mL); for `Cc1ccccc1/C=C/C(=O)OC[C@@H]1NC(=O)[C@@H](Cc2c[nH]c3ccccc23)NC(=O)[C@@H](COC(=O)/C=C/c2ccccc2C)NC(=O)[C@@H](C(C)C)NC(=O)[C@H](Cc2ccccc2)NC(=O)[C@@H](C(C)C)NC(=O)[C@@H](C)NC1=O`: 12.5 µM (≈ 13.3 µg/mL); for `COc1ccc(/C=C/C(=O)OC[C@@H]2NC(=O)[C@@H](Cc3c[nH]c4ccccc34)NC(=O)[C@@H](COC(=O)/C=C/c3ccc(OC)c(OC)c3)NC(=O)[C@@H](C(C)C)NC(=O)[C@H](Cc3ccccc3)NC(=O)[C@@H](C(C)C)NC(=O)[C@@H](C)NC2=O)cc1OC`: 100 µM (≈ 116 µg/mL).
The same measure, in the same setting: the same measure for `CC(C)[C@H]1NC(=O)[C@H](Cc2ccccc2)NC(=O)[C@@H](C(C)C)NC(=O)[C@@H](C)NC(=O)[C@H](CO)NC(=O)[C@@H](Cc2c[nH]c3ccccc23)NC(=O)[C@@H](COC(=O)/C=C/c2ccccc2)NC1=O`: above 100 µM; for `CC(C)[C@H]1NC(=O)[C@H](Cc2ccccc2)NC(=O)[C@@H](C(C)C)NC(=O)[C@@H](C)NC(=O)[C@H](CO)NC(=O)[C@@H](Cc2c[nH]c3ccccc23)NC(=O)[C@@H](COC(=O)/C=C/c2ccc(N(C)C)cc2)NC1=O`: 50 µM (≈ 47.5 µg/mL).
Still for that read-out and setting: the same measure for `COc1cc(Br)c(/C=C/C(=O)OC[C@H]2NC(=O)[C@@H](C(C)C)NC(=O)[C@H](Cc3ccccc3)NC(=O)[C@@H](C(C)C)NC(=O)[C@@H](C)NC(=O)[C@H](CO)NC(=O)[C@@H](Cc3c[nH]c4ccccc34)NC2=O)cc1OC`: 50 µM (≈ 52.3 µg/mL); for `CC(C)[C@H]1NC(=O)[C@H](Cc2ccccc2)NC(=O)[C@@H](C(C)C)NC(=O)[C@@H](C)NC(=O)[C@H](COC(=O)/C=C/c2ccccc2)NC(=O)[C@@H](Cc2c[nH]c3ccccc23)NC(=O)[C@@H](COC(=O)/C=C/c2ccccc2)NC1=O`: above 100 µM.
For `COc1cc(/C=C/C(=O)OC[C@@H]2NC(=O)[C@@H](Cc3c[nH]c4ccccc34)NC(=O)[C@@H](COC(=O)/C=C/c3ccc(OCc4ccccc4)c(OC)c3)NC(=O)[C@@H](C(C)C)NC(=O)[C@H](Cc3ccccc3)NC(=O)[C@@H](C(C)C)NC(=O)[C@@H](C)NC2=O)ccc1OCc1ccccc1`, the MIC was found to be 100 µM (≈ 131 µg/mL).
The same measure, in the same setting: with `CC(C)[C@H]1NC(=O)[C@H](Cc2ccccc2)NC(=O)[C@@H](C(C)C)NC(=O)[C@@H](C)NC(=O)[C@H](COC(=O)/C=C/c2ccc(N(C)C)cc2)NC(=O)[C@@H](Cc2c[nH]c3ccccc23)NC(=O)[C@@H](COC(=O)/C=C/c2ccc(N(C)C)cc2)NC1=O` the figure was 50 µM (≈ 56.2 µg/mL); with `CC(C)[C@H]1NC(=O)[C@H](Cc2ccccc2)NC(=O)[C@@H](C(C)C)NC(=O)[C@@H](C)NC(=O)[C@H](COC(=O)/C=C/c2ccc(F)cc2)NC(=O)[C@@H](Cc2c[nH]c3ccccc23)NC(=O)[C@@H](COC(=O)/C=C/c2ccc(F)cc2)NC1=O`, 50 µM (≈ 53.7 µg/mL); with `CC(C)[C@H]1NC(=O)CNC(=O)[C@H](CO)NC(=O)[C@@H](Cc2c[nH]c3ccccc23)NC(=O)[C@@H](C)NC(=O)[C@@H](C(C)C)NC(=O)[C@H](Cc2ccccc2)NC1=O`, 100 µM (≈ 74.7 µg/mL).
Turning to `CC(C)[C@H]1NC(=O)[C@H](Cc2ccccc2)NC(=O)[C@@H](C(C)C)NC(=O)[C@@H](C)NC(=O)[C@H](COC(=O)/C=C/c2ccc(F)c(F)c2)NC(=O)[C@@H](Cc2c[nH]c3ccccc23)NC(=O)[C@@H](COC(=O)/C=C/c2ccc(F)c(F)c2)NC1=O`, the MIC was 12.5 µM (≈ 13.9 µg/mL).
Still for that read-out and setting: the same measure for `CC(C)[C@H]1NC(=O)[C@H](Cc2ccccc2)NC(=O)[C@@H](C(C)C)NC(=O)[C@@H](C)NC(=O)[C@H](COC(=O)/C=C/c2ccc(C(F)(F)F)cc2)NC(=O)[C@@H](Cc2c[nH]c3ccccc23)NC(=O)[C@@H](COC(=O)/C=C/c2ccc(C(F)(F)F)cc2)NC1=O`: 100 µM (≈ 117 µg/mL).
For `COc1cc(Br)c(/C=C/C(=O)OC[C@@H]2NC(=O)[C@@H](Cc3c[nH]c4ccccc34)NC(=O)[C@@H](COC(=O)/C=C/c3cc(OC)c(OC)cc3Br)NC(=O)[C@@H](C(C)C)NC(=O)[C@H](Cc3ccccc3)NC(=O)[C@@H](C(C)C)NC(=O)[C@@H](C)NC2=O)cc1OC`, the MIC was 100 µM (≈ 132 µg/mL).
Still for that read-out and setting: with `COc1ccc(/C=C/C(=O)OC[C@@H]2NC(=O)[C@@H](Cc3c[nH]c4ccccc34)NC(=O)[C@@H](COC(=O)/C=C/c3ccc(OC)cc3)NC(=O)[C@@H](C(C)C)NC(=O)[C@H](Cc3ccccc3)NC(=O)[C@@H](C(C)C)NC(=O)[C@@H](C)NC2=O)cc1` the figure was 100 µM (≈ 110 µg/mL); with `COc1cc(/C=C/C(=O)OC[C@H]2NC(=O)[C@@H](C(C)C)NC(=O)[C@H](Cc3ccccc3)NC(=O)[C@@H](C(C)C)NC(=O)[C@@H](C)NC(=O)[C@H](CO)NC(=O)[C@@H](Cc3c[nH]c4ccccc34)NC2=O)ccc1OCc1ccccc1`, 50 µM (≈ 52.2 µg/mL); with `CC(C)[C@H]1NC(=O)CNC(=O)[C@H](C)NC(=O)[C@@H](Cc2c[nH]c3ccccc23)NC(=O)[C@@H](CO)NC(=O)[C@@H](C(C)C)NC(=O)[C@H](Cc2ccccc2)NC1=O`, 100 µM (≈ 74.7 µg/mL).
Still for that read-out and setting: the same measure for `CC(C)[C@H]1NC(=O)[C@H](Cc2ccccc2)NC(=O)[C@@H](C(C)C)NC(=O)[C@@H](C)NC(=O)[C@H](COC(=O)/C=C/c2cccc(Cl)c2)NC(=O)[C@@H](Cc2c[nH]c3ccccc23)NC(=O)[C@@H](COC(=O)/C=C/c2cccc(Cl)c2)NC1=O`: 100 µM (≈ 111 µg/mL).
The same measure, in the same setting: the same measure for `Cc1ccc(/C=C/C(=O)OC[C@@H]2NC(=O)[C@@H](Cc3c[nH]c4ccccc34)NC(=O)[C@@H](COC(=O)/C=C/c3ccc(C)cc3)NC(=O)[C@@H](C(C)C)NC(=O)[C@H](Cc3ccccc3)NC(=O)[C@@H](C(C)C)NC(=O)[C@@H](C)NC2=O)cc1`: 12.5 µM (≈ 13.3 µg/mL); for `CC(C)[C@H]1NC(=O)[C@H](Cc2ccccc2)NC(=O)[C@@H](C(C)C)NC(=O)[C@@H](C)NC(=O)[C@H](COC(=O)/C=C/c2ccc(Cl)cc2)NC(=O)[C@@H](Cc2c[nH]c3ccccc23)NC(=O)[C@@H](COC(=O)/C=C/c2ccc(Cl)cc2)NC1=O`: 50 µM (≈ 55.3 µg/mL); for `CC(C)[C@H]1NC(=O)[C@H](Cc2ccccc2)NC(=O)[C@@H](C(C)C)NC(=O)[C@@H](C)NC(=O)[C@H](C)NC(=O)[C@@H](Cc2c[nH]c3ccccc23)NC(=O)[C@@H](C)NC1=O` (cyclo([dV][dA][dW]A[dA][dV]F)): 100 µM (≈ 74.5 µg/mL).
As for `CC(C)[C@H]1NC(=O)CNC(=O)[C@H](CO)NC(=O)[C@@H](Cc2c[nH]c3ccccc23)NC(=O)[C@@H](CO)NC(=O)[C@@H](C(C)C)NC(=O)[C@H](Cc2ccccc2)NC1=O` (cyclo([dV][dS][dW]SG[dV]F)), the MIC was found to be 100 µM (≈ 76.3 µg/mL).
On the same count and under the same terms, the same measure for `CC(C)[C@H]1NC(=O)[C@H](Cc2ccccc2)NC(=O)[C@@H](C(C)C)NC(=O)[C@@H](C)NC(=O)[C@H](CO)NC(=O)[C@@H](Cc2c[nH]c3ccccc23)NC(=O)[C@@H](CO)NC1=O` (cyclo([dV][dS][dW]S[dA][dV]F)): above 100 µM; for `NNC(=O)c1ccncc1` [ISONIAZID]: 0.0125 µM (≈ 0.00171 µg/mL); for `CO[C@H]1/C=C/O[C@@]2(C)Oc3c(C)c(O)c4c(O)c(c(/C=N/N5CCN(C)CC5)c(O)c4c3C2=O)NC(=O)/C(C)=C\C=C\[C@H](C)[C@H](O)[C@@H](C)[C@@H](O)[C@@H](C)[C@H](OC(C)=O)[C@@H]1C` [RIFAMPIN]: 0.00625 µM (≈ 0.00514 µg/mL).

Another test relates to Mycobacterium tuberculosis. As to the kind of experiment: Antitubercular activity against Mycobacterium tuberculosis H37Ra assessed as bacterial growth inhibition relative to parent compound. It counts as functional.
Consider `COc1ccc(/C=C/C(=O)OC[C@H]2NC(=O)[C@@H](C(C)C)NC(=O)[C@H](Cc3ccccc3)NC(=O)[C@@H](C(C)C)NC(=O)[C@@H](C)NC(=O)[C@H](CO)NC(=O)[C@@H](Cc3c[nH]c4ccccc34)NC2=O)cc1`, for which the “fold change (FC)” value is on record as 10.
The same measure, in the same setting: the same measure for `Cc1ccccc1/C=C/C(=O)OC[C@@H]1NC(=O)[C@@H](Cc2c[nH]c3ccccc23)NC(=O)[C@@H](COC(=O)/C=C/c2ccccc2C)NC(=O)[C@@H](C(C)C)NC(=O)[C@H](Cc2ccccc2)NC(=O)[C@@H](C(C)C)NC(=O)[C@@H](C)NC1=O`: 10.
Still for that read-out and setting: the same measure for `CC(C)[C@H]1NC(=O)[C@H](Cc2ccccc2)NC(=O)[C@@H](C(C)C)NC(=O)[C@@H](C)NC(=O)[C@H](COC(=O)/C=C/c2ccc(F)c(F)c2)NC(=O)[C@@H](Cc2c[nH]c3ccccc23)NC(=O)[C@@H](COC(=O)/C=C/c2ccc(F)c(F)c2)NC1=O`: 10; for `Cc1ccc(/C=C/C(=O)OC[C@@H]2NC(=O)[C@@H](Cc3c[nH]c4ccccc34)NC(=O)[C@@H](COC(=O)/C=C/c3ccc(C)cc3)NC(=O)[C@@H](C(C)C)NC(=O)[C@H](Cc3ccccc3)NC(=O)[C@@H](C(C)C)NC(=O)[C@@H](C)NC2=O)cc1`: 10.

As a reminder, the MIC is the lowest concentration that inhibits growth of the organism.
